Patent US12616673B2 (priority 2020, dated 2026)

System: LC3 in MOLM-13 cells
Test: Autophagy activation: LC3 Western blot and confocal microscopy
Details: 48 hours in culture
Method: C MOLM-13 cells were treated as in FIG. 1A for 24 or 48 hours. […] D The same cells analysed by Western blot in C were also assessed by confocal microscopy analysis to highlight the LC3 dots (in green); the DNA is highlighted in blue by the Hoechst dye.
After being deposited on a slide via cytospin, the cells were fixed with 4% paraformaldehyde for 7 min, permeabilized with 0.1% TritonX100 in PBS/1% BSA for 5 min and stained with the primary anti-FLT3 (rabbit monoclonal, FLT3 (8F2), #3462, Cell Signaling Technologies, Danvers, MA, USA) or anti-calnexin (CNX, rabbit polyclonal AB22595, AbCam, Cambridge, UK) or anti-calreticulin (CRT, rabbit polyclonal AB2907, AbCam, Cambridge, UK) or anti-LC3 (LC3B Antibody #2775) antibodies, and then with an Alexa Fluor-488 secondary anti-rabbit IgG antibody Molecular Probes, ThermoFisher Scientific, Waltham, MA, USA); the DNA was detected with the TOPRO-3 (Molecular Probes, ThermoFisher Scientific, Waltham, MA, USA) or Hoechst dye (Molecular Probes, ThermoFisher Scientific, Waltham, MA, USA) and the slides were mounted with the Vectashield medium (Vector Laboratories, Burlingame, CA, USA). The images were acquired with a Leica confocal laser scanning microscope TCS SP2 at 40× magnification or with a Zeiss LSM900 at 63× magnification. The images were analysed using the Leica Confocal software (Leica, Milan, Italy) or the Zeiss Zen Blue software. […]

CC1=C(/C=C/C(C)=C/C=C/C(C)=C/C(=O)O)C(C)(C)CCC1 [R, all-trans retinoic acid]
autophagy activation (LC3 activity, LC3-II/LC3-I): slight increase in LC3 activity
